Molecules are shown by their SMILES. Several values for one entry are separate records, joined by “and”; a condition that tells them apart may be missing. Equal entries are not always repeated. Where two headings read alike, the source gives them in different places.

This is an account of results in article PMC5949348, “The Metabolism of Separase Inhibitor Sepin-1 in Human, Mouse, and Rat Liver Microsomes” (Frontiers in Pharmacology, 2018).

The target in one assay is T1, CYP2B6 (Homo sapiens, UniProt P20813).
T1 construct: purchased XenoTech
T1 sequence (P20813 1-491): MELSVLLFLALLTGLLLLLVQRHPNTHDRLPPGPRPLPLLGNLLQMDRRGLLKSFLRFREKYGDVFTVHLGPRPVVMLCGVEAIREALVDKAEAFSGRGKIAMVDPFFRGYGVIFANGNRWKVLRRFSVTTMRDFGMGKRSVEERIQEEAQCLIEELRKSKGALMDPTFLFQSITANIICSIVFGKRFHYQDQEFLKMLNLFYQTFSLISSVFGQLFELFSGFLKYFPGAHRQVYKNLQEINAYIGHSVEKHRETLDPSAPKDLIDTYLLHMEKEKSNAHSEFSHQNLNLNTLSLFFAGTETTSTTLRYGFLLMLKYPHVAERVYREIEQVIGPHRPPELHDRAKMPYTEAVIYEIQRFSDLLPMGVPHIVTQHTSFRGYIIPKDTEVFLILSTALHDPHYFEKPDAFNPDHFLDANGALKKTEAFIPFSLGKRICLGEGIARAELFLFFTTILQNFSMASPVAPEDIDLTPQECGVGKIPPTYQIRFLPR
In words: Inhibition of sepin-1 on CYP2B6. The assay is classed as in vitro ADME. Here is the method: (§1) Incubations were performed in 1× PBS (pH 7.4), containing 0, 0.156, 0.312, 0.625, 1.25, 2.5, 5, 10, 20, or 40 μM sepin-1, 2 pmol of each cDNA-expressed P450 enzymes, and corresponding substrates: CYP1A2 (phenacetin, 40 μM, 20 min incubation), 2B6 (efavirenz, 20 μM, 30 min), 2C8 (paclitaxel, 10 μM, 30 min), 2C9 (diclofenac, 5 μM, 15 min), 2C19 [(S)-mephenytoin, 40 μM, 20 min], 2D6 (dextromethorphan, 5 μM, 15 min), and CYP3A4 (midazolam, 3 μM, 10 min) in a final volume of 190 μl. After 5 min of pre-incubation at 37°C, the reaction was initiated by adding 10 μl of 20 mM NADPH (final concentration 1.0 mM) and continued for a specific time as presented above with gentle shaking. Incubations without sepin-1 were used as controls. Reactions were terminated by the addition of 200 μl of ice-cold methanol, vortexing for 30 s, and centrifuging at 15,000 × g for 15 min. Each supernatant was transferred to an auto sampler vial and 5.0 μl was injected on to UHPLC coupled with a QQQMS system for the specific metabolite analysis. A MRM method was used. Incubations were conducted in duplicate. Positive controls were performed by using a known specific inhibitor for each of the isoform assays (Supplementary Table S1). […]

For another assay, the target named is T2, CYP2C8 (Homo sapiens, UniProt P10632).
T2 construct: purchased XenoTech
T2 sequence (P10632 1-490): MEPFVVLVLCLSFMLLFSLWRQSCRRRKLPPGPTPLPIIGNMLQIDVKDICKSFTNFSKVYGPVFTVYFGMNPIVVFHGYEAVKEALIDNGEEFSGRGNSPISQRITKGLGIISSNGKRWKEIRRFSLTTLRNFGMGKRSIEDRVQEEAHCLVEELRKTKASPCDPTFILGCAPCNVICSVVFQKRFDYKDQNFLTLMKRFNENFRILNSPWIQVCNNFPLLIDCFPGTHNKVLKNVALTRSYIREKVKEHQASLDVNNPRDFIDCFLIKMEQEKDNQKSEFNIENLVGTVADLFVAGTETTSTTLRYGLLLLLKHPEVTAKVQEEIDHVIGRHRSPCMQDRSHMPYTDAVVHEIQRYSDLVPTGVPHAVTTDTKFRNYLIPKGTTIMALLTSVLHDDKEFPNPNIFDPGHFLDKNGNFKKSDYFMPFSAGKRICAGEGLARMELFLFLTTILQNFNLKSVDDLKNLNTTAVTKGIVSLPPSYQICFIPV
In words: Inhibition of sepin-1 on CYP2C8. The assay is classed as in vitro ADME. How it is done:
as §1

A further assay deals with T3, CYP2C19 (Homo sapiens, UniProt P33261).
T3 construct: purchased XenoTech
In words: Inhibition of sepin-1 on CYP2C19. The format is in vitro ADME. How it is done: as §1

The next assay addresses T4, CYP2D6 (Homo sapiens, UniProt P10635).
T4 construct: purchased XenoTech
In words: Inhibition of sepin-1 on CYP2D6. The assay is classed as in vitro ADME. How it is done: as §1

A further assay deals with separase. The arrangement: method as in Zhang et al., 2014. As to conditions: ref Zhang et al., 2014; cited from earlier work.
For assay [1], the system named is cancer cell lines including breast cancer, leukemia, and neuroblastoma. More on the design: method as in Zhang et al., 2014. As to conditions: ref Zhang et al., 2014; cited from earlier work.

T4 sequence (P10635 whole entry): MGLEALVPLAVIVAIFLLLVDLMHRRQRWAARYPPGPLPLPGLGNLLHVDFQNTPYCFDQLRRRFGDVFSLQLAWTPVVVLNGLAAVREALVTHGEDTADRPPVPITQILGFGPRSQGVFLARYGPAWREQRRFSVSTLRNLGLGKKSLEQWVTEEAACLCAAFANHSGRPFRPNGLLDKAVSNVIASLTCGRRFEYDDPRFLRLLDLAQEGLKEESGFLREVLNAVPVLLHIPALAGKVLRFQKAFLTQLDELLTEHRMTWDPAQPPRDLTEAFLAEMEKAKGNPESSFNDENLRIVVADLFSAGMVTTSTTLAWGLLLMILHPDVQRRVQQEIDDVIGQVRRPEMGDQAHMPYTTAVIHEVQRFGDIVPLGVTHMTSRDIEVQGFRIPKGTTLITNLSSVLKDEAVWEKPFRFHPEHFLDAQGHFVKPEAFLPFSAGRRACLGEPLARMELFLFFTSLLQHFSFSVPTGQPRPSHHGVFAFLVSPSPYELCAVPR
T3 sequence (P33261 whole entry): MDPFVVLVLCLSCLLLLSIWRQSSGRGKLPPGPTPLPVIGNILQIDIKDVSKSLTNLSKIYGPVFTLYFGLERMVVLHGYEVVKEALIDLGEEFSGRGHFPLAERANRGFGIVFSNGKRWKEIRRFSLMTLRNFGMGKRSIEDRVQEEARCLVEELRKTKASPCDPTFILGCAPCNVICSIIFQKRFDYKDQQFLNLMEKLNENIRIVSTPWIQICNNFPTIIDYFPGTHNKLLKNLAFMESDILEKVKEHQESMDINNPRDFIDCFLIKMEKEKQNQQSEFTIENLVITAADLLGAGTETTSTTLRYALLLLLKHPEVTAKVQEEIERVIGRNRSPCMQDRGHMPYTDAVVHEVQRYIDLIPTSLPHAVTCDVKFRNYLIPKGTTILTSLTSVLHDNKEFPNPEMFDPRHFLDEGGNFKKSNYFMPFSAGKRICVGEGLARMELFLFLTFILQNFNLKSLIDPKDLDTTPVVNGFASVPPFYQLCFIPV

For `CC1(C)[N+]([O-])=c2ccc([N+](=O)[O-])cc2=[N+]1[O-]` [Sepin-1, 2,2-dimethyl-5-nitro-2H-benzimidazole-1,3-dioxide], the “Inhibition potency class on CYP2B6” value on CYP2B6 (FDA classification bands) is recorded as “weak inhibition”. Besides, the IC50 is > 10 µM and 14.5 µM at CYP2B6 (substrate efavirenz 20 μM, 30 min, metabolite 8-O-efavirenz, co-incubation); > 10 µM and 17.8 µM at CYP2C8 (substrate paclitaxel 10 μM, 30 min, metabolite 6-O-paclitaxel, co-incubation); 1 to 10 µM on CYP2C19 (FDA classification bands, read-out: Inhibition potency class on CYP2C19); < 10 µM and 8.9 µM at CYP2C19 (substrate (S)-mephenytoin 40 μM, 20 min, metabolite 4-O-mephenytoin, co-incubation, read-out: IC50 on CYP2C19); > 10 µM and 42.5 µM on CYP2D6 (substrate dextromethorphan 5 μM, 15 min, O-demethylation, co-incubation). At CYP2C8 (FDA classification bands), the “Inhibition potency class on CYP2C8” value was “weak inhibition”. For the same molecule, the “Inhibition potency class on CYP2D6” value on CYP2D6 (FDA classification bands) is recorded as “weak inhibition”. The “Inhibition of separase activity (mode)” value in the assay with separase is listed as “inhibits separase activity in a non-competitive way”. Moreover, in assay [1], the “Inhibition of cancer cell line growth” value is recorded as “selectively inhibits the growth of cancer cell lines”.
